The data set deals with CD137 (Homo sapiens, UniProt Q07011). As to the kind of experiment: CD137 Promega reporter cell activity assay (NF-κB luciferase in Jurkat cells). The conditions noted are these: for Average Fold EC50 Improvement relative to CD137L: Average EC50 for CD137L = 14.2 nM; for Average Relative Fold Induction relative to CD137L: Average fold induction for CD137L = 4.0.
Sequence of CD137 (Q07011 24-255): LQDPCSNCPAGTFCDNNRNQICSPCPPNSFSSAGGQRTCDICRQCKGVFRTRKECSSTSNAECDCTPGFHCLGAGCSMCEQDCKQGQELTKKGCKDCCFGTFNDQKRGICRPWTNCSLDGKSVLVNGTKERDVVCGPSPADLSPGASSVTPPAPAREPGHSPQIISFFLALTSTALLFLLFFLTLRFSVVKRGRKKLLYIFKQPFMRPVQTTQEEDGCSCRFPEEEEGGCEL

Protocol: CD137 binding multimers were evaluated for CD137 using a Reporter cell activity assay that uses NF-κB luciferase luminescence as a read-out of CD137 activation in Jurkat cells. […] Samples were diluted at concentration expected to give the maximum fold induction and then titrated down in 1/3 dilution series or 1/10 dilution series in a sterile 96 well-plate. […] 50 μl cells were added per well to white cell culture plates.
Cells were co-incubated together with agonists for 6 h at 37° C., 5% CO2. After 6 h Bio-Glo™ was thawed and the assay developed at room-temperature. 75 ul Bio-Glo™ was added per well and incubated for 5-10 min. Luciferase signal was read on a Pherastar plate-reader using MARS program. Data was analysed by transforming the data to x=log (X), then plotting log (agonist) vs. response variable slope (4 parameters) to calculate EC50 values.

Regarding `CCCC[C@@H]1NC(=O)[C@H](Cc2ccc(O)cc2)NC(=O)[C@@H]2CCCN2C(=O)[C@H](CC(=O)O)NC(=O)[C@H](C)NC(=O)[C@H](CCCCNC(=O)OCC2C3CCc4nnn(CCOCCOCCOCCOCCOCCOCCOCCOCCOCCOCCNC(=O)CCOCC(COCCC(=O)NCCOCCOCCOCCOCCOCCOCCOCCOCCOCCOCCn5nnc6c5CCC5C(CC6)C5COC(=O)NCCCC[C@@H]5NC(=O)[C@@H]6CSCCC(=O)N7CN(CN(C7)C(=O)CCSC[C@@H](C(=O)N[C@@H](C)C(N)=O)NC(=O)[C@H](CCCC)NC(=O)[C@H](Cc7ccc(O)cc7)NC(=O)[C@@H]7CCCN7C(=O)[C@H](CC(=O)O)NC(=O)[C@H](C)NC5=O)C(=O)CCSC[C@H](NC(=O)[C@H](C)NC(C)=O)C(=O)N[C@@H]([C@@H](C)CC)C(=O)N[C@@H](CCC(=O)O)C(=O)N[C@@H](CCC(=O)O)C(=O)NCC(=O)N[C@@H](CCC(N)=O)C(=O)N[C@@H](Cc5ccc(O)cc5)C(=O)N6)(COCCC(=O)NCCOCCOCCOCCOCCOCCOCCOCCOCCOCCOCCn5nnc6c5CCC5C(CC6)C5COC(=O)NCCCC[C@@H]5NC(=O)[C@@H]6CSCCC(=O)N7CN(CN(C7)C(=O)CCSC[C@@H](C(=O)N[C@@H](C)C(N)=O)NC(=O)[C@H](CCCC)NC(=O)[C@H](Cc7ccc(O)cc7)NC(=O)[C@@H]7CCCN7C(=O)[C@H](CC(=O)O)NC(=O)[C@H](C)NC5=O)C(=O)CCSC[C@H](NC(=O)[C@H](C)NC(C)=O)C(=O)N[C@@H]([C@@H](C)CC)C(=O)N[C@@H](CCC(=O)O)C(=O)N[C@@H](CCC(=O)O)C(=O)NCC(=O)N[C@@H](CCC(N)=O)C(=O)N[C@@H](Cc5ccc(O)cc5)C(=O)N6)COCCC(=O)NCCOCCOCCOCCOCCOCCOCCOCCOCCOCCOCCn5nnc6c5CCC5C(CC6)C5COC(=O)NCCCC[C@@H]5NC(=O)[C@@H]6CSCCC(=O)N7CN(CN(C7)C(=O)CCSC[C@@H](C(=O)N[C@@H](C)C(N)=O)NC(=O)[C@H](CCCC)NC(=O)[C@H](Cc7ccc(O)cc7)NC(=O)[C@@H]7CCCN7C(=O)[C@H](CC(=O)O)NC(=O)[C@H](C)NC5=O)C(=O)CCSC[C@H](NC(=O)[C@H](C)NC(C)=O)C(=O)N[C@@H]([C@@H](C)CC)C(=O)N[C@@H](CCC(=O)O)C(=O)N[C@@H](CCC(=O)O)C(=O)NCC(=O)N[C@@H](CCC(N)=O)C(=O)N[C@@H](Cc5ccc(O)cc5)C(=O)N6)c4CCC32)NC(=O)[C@@H]2CSCCC(=O)N3CN(CN(C3)C(=O)CCSC[C@@H](C(=O)N[C@@H](C)C(N)=O)NC1=O)C(=O)CCSC[C@H](NC(=O)[C@H](C)NC(C)=O)C(=O)N[C@@H]([C@@H](C)CC)C(=O)N[C@@H](CCC(=O)O)C(=O)N[C@@H](CCC(=O)O)C(=O)NCC(=O)N[C@@H](CCC(N)=O)C(=O)N[C@@H](Cc1ccc(O)cc1)C(=O)N2` (stereo partly drawn) [BCY8147], the “Average Fold EC50 Improvement relative to CD137L” value was determined as 50.58 and the “Average Relative Fold Induction relative to CD137L” value turned out to be 1.04.
The matching figures for `CCCC[C@@H]1NC(=O)[C@H](Cc2ccc(O)cc2)NC(=O)[C@@H]2CCCN2C(=O)[C@H](CC(=O)O)NC(=O)[C@H](C)NC(=O)[C@H](CCCCNC(=O)OCC2C3CCc4nnn(CCOCCOCCOCCOCCOCCOCCOCCOCCOCCOCCOCCOCCOCCOCCOCCOCCOCCOCCOCCOCCOCCOCCOCCNC(=O)CCOCC(COCCC(=O)NCCOCCOCCOCCOCCOCCOCCOCCOCCOCCOCCOCCOCCOCCOCCOCCOCCOCCOCCOCCOCCOCCOCCOCCn5nnc6c5CCC5C(CC6)C5COC(=O)NCCCC[C@@H]5NC(=O)[C@@H]6CSCCC(=O)N7CN(CN(C7)C(=O)CCSC[C@@H](C(=O)N[C@@H](C)C(N)=O)NC(=O)[C@H](CCCC)NC(=O)[C@H](Cc7ccc(O)cc7)NC(=O)[C@@H]7CCCN7C(=O)[C@H](CC(=O)O)NC(=O)[C@H](C)NC5=O)C(=O)CCSC[C@H](NC(=O)[C@H](C)NC(C)=O)C(=O)N[C@@H]([C@@H](C)CC)C(=O)N[C@@H](CCC(=O)O)C(=O)N[C@@H](CCC(=O)O)C(=O)NCC(=O)N[C@@H](CCC(N)=O)C(=O)N[C@@H](Cc5ccc(O)cc5)C(=O)N6)(COCCC(=O)NCCOCCOCCOCCOCCOCCOCCOCCOCCOCCOCCOCCOCCOCCOCCOCCOCCOCCOCCOCCOCCOCCOCCOCCn5nnc6c5CCC5C(CC6)C5COC(=O)NCCCC[C@@H]5NC(=O)[C@@H]6CSCCC(=O)N7CN(CN(C7)C(=O)CCSC[C@@H](C(=O)N[C@@H](C)C(N)=O)NC(=O)[C@H](CCCC)NC(=O)[C@H](Cc7ccc(O)cc7)NC(=O)[C@@H]7CCCN7C(=O)[C@H](CC(=O)O)NC(=O)[C@H](C)NC5=O)C(=O)CCSC[C@H](NC(=O)[C@H](C)NC(C)=O)C(=O)N[C@@H]([C@@H](C)CC)C(=O)N[C@@H](CCC(=O)O)C(=O)N[C@@H](CCC(=O)O)C(=O)NCC(=O)N[C@@H](CCC(N)=O)C(=O)N[C@@H](Cc5ccc(O)cc5)C(=O)N6)COCCC(=O)NCCOCCOCCOCCOCCOCCOCCOCCOCCOCCOCCOCCOCCOCCOCCOCCOCCOCCOCCOCCOCCOCCOCCOCCn5nnc6c5CCC5C(CC6)C5COC(=O)NCCCC[C@@H]5NC(=O)[C@@H]6CSCCC(=O)N7CN(CN(C7)C(=O)CCSC[C@@H](C(=O)N[C@@H](C)C(N)=O)NC(=O)[C@H](CCCC)NC(=O)[C@H](Cc7ccc(O)cc7)NC(=O)[C@@H]7CCCN7C(=O)[C@H](CC(=O)O)NC(=O)[C@H](C)NC5=O)C(=O)CCSC[C@H](NC(=O)[C@H](C)NC(C)=O)C(=O)N[C@@H]([C@@H](C)CC)C(=O)N[C@@H](CCC(=O)O)C(=O)N[C@@H](CCC(=O)O)C(=O)NCC(=O)N[C@@H](CCC(N)=O)C(=O)N[C@@H](Cc5ccc(O)cc5)C(=O)N6)c4CCC32)NC(=O)[C@@H]2CSCCC(=O)N3CN(CN(C3)C(=O)CCSC[C@@H](C(=O)N[C@@H](C)C(N)=O)NC1=O)C(=O)CCSC[C@H](NC(=O)[C@H](C)NC(C)=O)C(=O)N[C@@H]([C@@H](C)CC)C(=O)N[C@@H](CCC(=O)O)C(=O)N[C@@H](CCC(=O)O)C(=O)NCC(=O)N[C@@H](CCC(N)=O)C(=O)N[C@@H](Cc1ccc(O)cc1)C(=O)N2` (stereo partly drawn) [BCY8148]: 18.71 and 1.20.
The matching figures for `CCCC[C@@H]1NC(=O)[C@H](Cc2ccc(O)cc2)NC(=O)[C@@H]2CCCN2C(=O)[C@H](CC(=O)O)NC(=O)[C@H](C)NC(=O)[C@H](Cc2ccccc2)NC(=O)[C@@H]2CSCCC(=O)N3CN(CN(C3)C(=O)CCSC[C@@H](C(=O)N[C@@H](C)C(N)=O)NC1=O)C(=O)CCSC[C@H](NC(=O)[C@H](C)NC(=O)OCC1C3CCc4nnn(CCOCCOCCOCCOCCOCCOCCOCCOCCOCCOCCOCCOCCOCCOCCOCCOCCOCCOCCOCCOCCOCCOCCOCCNC(=O)CCOCC(COCCC(=O)NCCOCCOCCOCCOCCOCCOCCOCCOCCOCCOCCOCCOCCOCCOCCOCCOCCOCCOCCOCCOCCOCCOCCOCCn5nnc6c5CCC5C(CC6)C5COC(=O)N[C@@H](C)C(=O)N[C@H]5CSCCC(=O)N6CN7CN(C6)C(=O)CCSC[C@H](NC(=O)[C@H](Cc6ccc(O)cc6)NC(=O)[C@H](CCC(N)=O)NC(=O)CNC(=O)[C@H](CCC(=O)O)NC(=O)[C@H](CCC(=O)O)NC(=O)[C@H]([C@@H](C)CC)NC5=O)C(=O)N[C@@H](Cc5ccccc5)C(=O)N[C@@H](C)C(=O)N[C@@H](CC(=O)O)C(=O)N5CCC[C@H]5C(=O)N[C@@H](Cc5ccc(O)cc5)C(=O)N[C@@H](CCCC)C(=O)N[C@H](C(=O)N[C@@H](C)C(N)=O)CSCCC7=O)(COCCC(=O)NCCOCCOCCOCCOCCOCCOCCOCCOCCOCCOCCOCCOCCOCCOCCOCCOCCOCCOCCOCCOCCOCCOCCOCCn5nnc6c5CCC5C(CC6)C5COC(=O)N[C@@H](C)C(=O)N[C@H]5CSCCC(=O)N6CN7CN(C6)C(=O)CCSC[C@H](NC(=O)[C@H](Cc6ccc(O)cc6)NC(=O)[C@H](CCC(N)=O)NC(=O)CNC(=O)[C@H](CCC(=O)O)NC(=O)[C@H](CCC(=O)O)NC(=O)[C@H]([C@@H](C)CC)NC5=O)C(=O)N[C@@H](Cc5ccccc5)C(=O)N[C@@H](C)C(=O)N[C@@H](CC(=O)O)C(=O)N5CCC[C@H]5C(=O)N[C@@H](Cc5ccc(O)cc5)C(=O)N[C@@H](CCCC)C(=O)N[C@H](C(=O)N[C@@H](C)C(N)=O)CSCCC7=O)COCCC(=O)NCCOCCOCCOCCOCCOCCOCCOCCOCCOCCOCCOCCOCCOCCOCCOCCOCCOCCOCCOCCOCCOCCOCCOCCn5nnc6c5CCC5C(CC6)C5COC(=O)N[C@@H](C)C(=O)N[C@H]5CSCCC(=O)N6CN7CN(C6)C(=O)CCSC[C@H](NC(=O)[C@H](Cc6ccc(O)cc6)NC(=O)[C@H](CCC(N)=O)NC(=O)CNC(=O)[C@H](CCC(=O)O)NC(=O)[C@H](CCC(=O)O)NC(=O)[C@H]([C@@H](C)CC)NC5=O)C(=O)N[C@@H](Cc5ccccc5)C(=O)N[C@@H](C)C(=O)N[C@@H](CC(=O)O)C(=O)N5CCC[C@H]5C(=O)N[C@@H](Cc5ccc(O)cc5)C(=O)N[C@@H](CCCC)C(=O)N[C@H](C(=O)N[C@@H](C)C(N)=O)CSCCC7=O)c4CCC31)C(=O)N[C@@H]([C@@H](C)CC)C(=O)N[C@@H](CCC(=O)O)C(=O)N[C@@H](CCC(=O)O)C(=O)NCC(=O)N[C@@H](CCC(N)=O)C(=O)N[C@@H](Cc1ccc(O)cc1)C(=O)N2` (stereo partly drawn) [BCY8149]: 140.06 and 0.93.
